Results on seven compounds are retold here after ChEMBL document CHEMBL4311960, “Two optimized antimicrobial peptides with therapeutic potential for clinical antibiotic-resistant Staphylococcus aureus” (Eur J Med Chem, 2019).

Data set [1] in a line: Cytotoxicity against human HEK293T cells assessed as cell viability at 5 to 640 ug/ml incubated for 48 hrs by MTT assay relative to control. It counts as cell-based, HEK-293T. The conditions noted are these: read-out: Activity. In general terms: Tetrazolium dyes change colour on reduction, which living cells bring about.
In the next data set the test system is Streptococcus sanguinis. Briefly: Antibacterial activity against Streptococcus sanguinis ATCC 10556 assessed as reduction in bacterial growth incubated for 24 hrs by serial dilution method. The conditions noted are these: ATCC 10556, 24 h. It is filed as functional.
A further data set concerns Streptococcus mutans. Briefly: Antibacterial activity against Streptococcus mutans UA159 assessed as reduction in bacterial growth incubated for 24 hrs by serial dilution method. It is filed as functional. As to conditions: UA159, 24 h.
In a further data set the test system is Erythrocyte. Briefly: Hemolytic activity in mouse Erythrocyte assessed as HC10 incubated for 1 hr. It counts as ADME, cell-based.
In data set [2] the test system is Staphylococcus aureus. Briefly: Antibacterial activity against methicillin-resistant Staphylococcus aureus ATCC 18466 assessed as reduction in bacterial growth incubated for 24 hrs by serial dilution method. It is filed as functional. The conditions noted are these: ATCC 18466, 24 h, read-out: MIC.
Data set [3] relates to Staphylococcus aureus. The data set can be described thus: Antibacterial activity against Staphylococcus aureus ATCC 25923 assessed as reduction in bacterial growth incubated for 24 hrs by serial dilution method. It is filed as functional. As to conditions: ATCC 25923, 24 h.
Data set [4] is described as follows: Hemolytic activity in mouse Erythrocyte assessed as HC50 incubated for 1 hr. It is filed as ADME, cell-based. The conditions noted are these: mouse erythrocytes.
The test system of the next data set is Candida albicans. Briefly: Antifungal activity against Candida albicans ATCC 5314 assessed as reduction in fungal growth incubated for 24 hrs by serial dilution method. It is filed as functional. As to conditions: ATCC 5314, 24 h.
Data set [5] in a line: Hemolytic activity in mouse Erythrocyte at 640 ug/ml incubated for 1 hr relative to control. It counts as ADME, cell-based. As to conditions: mouse erythrocytes, read-out: %max.
Data set [6] is described as follows: Cytotoxicity against human HEK293T cells assessed as cell viability at 640 ug/ml incubated for 48 hrs by MTT assay relative to control. The conditions noted are these: read-out: Activity. It is filed as cell-based, HEK-293T.
Data set [7] deals with Staphylococcus aureus. The data set can be described thus: Antibacterial activity against methicillin-resistant Staphylococcus aureus ATCC 19167 assessed as reduction in bacterial growth incubated for 24 hrs by serial dilution method. It counts as functional. As to conditions: ATCC 19167, 24 h.
The subject of data set [8] is Staphylococcus aureus. The data set can be described thus: Antibacterial activity against methicillin-resistant Staphylococcus aureus ATCC 18475 assessed as reduction in bacterial growth incubated for 24 hrs by serial dilution method. It is filed as functional. The conditions noted are these: ATCC 18475, 24 h.
In data set [9] the test system is Staphylococcus aureus. Briefly: Antibacterial activity against methicillin-resistant Staphylococcus aureus ATCC 19494 assessed as reduction in bacterial growth incubated for 24 hrs by serial dilution method. As to conditions: ATCC 19494, 24 h. It counts as functional.
The subject of data set [10] is Staphylococcus aureus. Briefly: Antibacterial activity against Staphylococcus aureus ATCC 6538 assessed as reduction in bacterial growth incubated for 24 hrs by serial dilution method. The conditions noted are these: ATCC 6538, 24 h. It is filed as functional.
Data set [11] relates to Staphylococcus aureus. Briefly: Antibacterial activity against methicillin-resistant Staphylococcus aureus ATCC 19102 assessed as reduction in bacterial growth incubated for 24 hrs by serial dilution method. It is filed as functional. The conditions noted are these: ATCC 19102, 24 h.
The subject of data set [12] is Staphylococcus aureus. The data set can be described thus: Antibacterial activity against methicillin-resistant Staphylococcus aureus ATCC 19498 assessed as reduction in bacterial growth incubated for 24 hrs by serial dilution method. It counts as functional. As to conditions: ATCC 19498, 24 h.
In data set [13] the test system is Staphylococcus aureus. The data set can be described thus: Antibacterial activity against methicillin-resistant Staphylococcus aureus ATCC 19916 assessed as reduction in bacterial growth incubated for 24 hrs by serial dilution method. It counts as functional. As to conditions: ATCC 19916, 24 h.
Data set [14] has as its system Staphylococcus aureus. Briefly: Antibacterial activity against Staphylococcus aureus ATCC 29213 assessed as reduction in bacterial growth at MIC measured after 15 passages. It counts as functional.
Data set [15] concerns Staphylococcus aureus. Briefly: Antibacterial activity against methicillin-resistant Staphylococcus aureus ATCC 18858 assessed as reduction in bacterial growth incubated for 24 hrs by serial dilution method. It counts as functional. The conditions noted are these: ATCC 18858, 24 h.
Data set [16] relates to Staphylococcus aureus. The data set can be described thus: Antibacterial activity against methicillin-resistant Staphylococcus aureus ATCC 19423 assessed as reduction in bacterial growth incubated for 24 hrs by serial dilution method. It is filed as functional. The conditions noted are these: ATCC 19423, 24 h.
Data set [17] has as its system Staphylococcus aureus. Briefly: Antibacterial activity against Staphylococcus aureus ATCC 25923 assessed as reduction in bacterial growth at MIC measured after 15 passages. It counts as functional.
The subject of data set [18] is Staphylococcus aureus. Briefly: Antibacterial activity against methicillin-resistant Staphylococcus aureus ATCC 19900 assessed as reduction in bacterial growth incubated for 24 hrs by serial dilution method. It is filed as functional. As to conditions: ATCC 19900, 24 h.
The subject of data set [19] is Staphylococcus aureus. Briefly: Antibacterial activity against methicillin-resistant Staphylococcus aureus ATCC 19047 assessed as reduction in bacterial growth incubated for 24 hrs by serial dilution method. It is filed as functional. The conditions noted are these: ATCC 19047, 24 h.
The subject of data set [20] is Staphylococcus aureus. The data set can be described thus: Ratio of MIC for resistant Staphylococcus aureus ATCC 25923 for 15 days to MIC for Staphylococcus aureus ATCC 25923 for 24 hrs. It counts as functional.
Data set [21] has as its system Staphylococcus aureus. The data set can be described thus: Antibacterial activity against Staphylococcus aureus ATCC 8325.4 assessed as reduction in bacterial growth incubated for 24 hrs by serial dilution method. It is filed as functional. As to conditions: ATCC 8325.4, 24 h.
The test system of data set [22] is Staphylococcus aureus. The data set can be described thus: Antibacterial activity against Staphylococcus aureus ATCC 29213 assessed as reduction in bacterial growth incubated for 24 hrs by serial dilution method. It is filed as functional. As to conditions: ATCC 29213, 24 h.
Data set [23] concerns Staphylococcus aureus. The data set can be described thus: Antibacterial activity against methicillin-resistant Staphylococcus aureus ATCC 18878 assessed as reduction in bacterial growth incubated for 24 hrs by serial dilution method. It counts as functional. As to conditions: ATCC 18878, 24 h.
Data set [24] has as its system Staphylococcus aureus. Briefly: Antibacterial activity against methicillin-resistant Staphylococcus aureus ATCC 18567 assessed as reduction in bacterial growth incubated for 24 hrs by serial dilution method. It counts as functional. The conditions noted are these: ATCC 18567, 24 h.
The test system of data set [25] is Staphylococcus aureus. Briefly: Ratio of MIC for resistant Staphylococcus aureus ATCC 29213 for 15 days to MIC for Staphylococcus aureus ATCC 29213 for 24 hrs. It is filed as functional.
Data set [26] deals with Staphylococcus aureus. Briefly: Antibacterial activity against methicillin-resistant Staphylococcus aureus ATCC 19041 assessed as reduction in bacterial growth incubated for 24 hrs by serial dilution method. It counts as functional. As to conditions: ATCC 19041, 24 h.
The subject of data set [27] is Staphylococcus aureus. Briefly: Antibacterial activity against methicillin-resistant Staphylococcus aureus ATCC 19952 assessed as reduction in bacterial growth incubated for 24 hrs by serial dilution method. It counts as functional. As to conditions: ATCC 19952, 24 h.
Data set [28] concerns Staphylococcus aureus. The data set can be described thus: Antibacterial activity against methicillin-resistant Staphylococcus aureus ATCC 18908 assessed as reduction in bacterial growth incubated for 24 hrs by serial dilution method. It counts as functional. The conditions noted are these: ATCC 18908, 24 h.

≈ marks a conversion by molar mass, not a printed value.

As a reminder, the MIC is the lowest concentration found to suppress growth. The term HC50 denotes the concentration that lyses half of the red blood cells.

As to H-YIRKINRHFKTLKKNLKK-NH2, the viability at 48 h in [1] was in the range of 70 to 80%. Moreover, the minimum inhibitory concentration (MIC) with Streptococcus sanguinis (read-out: MIC) was < 64 µg/mL; in the data set with Streptococcus mutans, > 64 µg/mL; in the data set with Staphylococcus aureus [2] it was < 64 µg/mL; in the data set with Staphylococcus aureus [3] (read-out: MIC), < 64 µg/mL; with Candida albicans (read-out: MIC) it was < 64 µg/mL. In addition, in the data set with Erythrocyte, the HC10 is > 640 µg/mL. Further, the 50% haemolytic concentration (HC50) at 1 h in [4] is > 640 µg/mL. The hemolysis at 1 h, 640 ug/ml in data set [5] came to 8.07%.
For the compound H-YIRKIRRFFKTLNKNLKK-NH2, in data set [1], the viability at 48 h was in the range of 70 to 80%. Besides, the MIC in the data set on Streptococcus sanguinis (read-out: MIC) was < 64 µg/mL; in the data set with Streptococcus mutans (read-out: MIC) it was 32 µg/mL; in the data set on Staphylococcus aureus [2] it was < 64 µg/mL; in the data set on Staphylococcus aureus [3] it was > 64 µg/mL; in the data set with Candida albicans (read-out: MIC), < 64 µg/mL. The HC10 in the data set on Erythrocyte was > 640 µg/mL. Moreover, in [4], the HC50 at 1 h was > 640 µg/mL. In [5], the hemolysis at 1 h, 640 ug/ml came to 7.17%.
In the case of H-LYKRYILRKFKFLKKKLKKK-NH2, the viability at 48 h in [1] is 70 to 80%. Besides, the minimum inhibitory concentration (MIC) is > 64 µg/mL in the data set on Streptococcus sanguinis; > 64 µg/mL with Streptococcus mutans; 64 µg/mL with Staphylococcus aureus [2]; < 64 µg/mL in the data set with Staphylococcus aureus [3] (read-out: MIC); > 64 µg/mL with Candida albicans. Besides, the HC10 with Erythrocyte is > 640 µg/mL. For the same compound, in data set [4], the HC50 at 1 h is > 640 µg/mL. For the same compound, the hemolysis at 1 h, 640 ug/ml in data set [5] worked out at 9.34%.
Consider H-VWKRWVVRKWKWVKKKVKKK-NH2, for which, in [6], the viability at 48 h, 640 ug/ml came to 58.9%. In addition, the MIC is > 64 µg/mL with Streptococcus sanguinis; < 64 µg/mL in the data set with Streptococcus mutans (read-out: MIC); < 64 µg/mL in the data set with Staphylococcus aureus [2]; < 64 µg/mL with Staphylococcus aureus [3] (read-out: MIC); 64 µg/mL with Candida albicans (read-out: MIC). Moreover, the HC10 in the data set with Erythrocyte is 57.24 µg/mL. The HC50 at 1 h in data set [4] is > 640 µg/mL. In data set [5], the hemolysis at 1 h, 640 ug/ml is 31%.
On to `COc1cccc(OC)c1C(=O)N[C@@H]1C(=O)N2[C@@H]1SC(C)(C)[C@@H]2C(=O)O` [METHICILLIN], for which the MIC with Staphylococcus aureus [7] was > 1200 µg/mL; in the data set on Staphylococcus aureus [8], > 1200 µg/mL; in the data set with Staphylococcus aureus [9], > 1200 µg/mL; in the data set with Staphylococcus aureus [10], 1 µg/mL (≈ 0.00263 mM); in the data set with Staphylococcus aureus [11], > 1200 µg/mL; in the data set with Staphylococcus aureus [12], > 1200 µg/mL. Besides, the MIC with Staphylococcus aureus [13], with Staphylococcus aureus [15], in the data set with Staphylococcus aureus [16], in the data set on Staphylococcus aureus [18], in the data set on Staphylococcus aureus [19] and with Staphylococcus aureus [2] was > 1200 µg/mL throughout. Further, the MIC with Staphylococcus aureus [3] (read-out: MIC) was 1 µg/mL (≈ 0.00263 mM); in the data set with Staphylococcus aureus [21], 1 µg/mL (≈ 0.00263 mM); in the data set with Staphylococcus aureus [22] it was 1 µg/mL (≈ 0.00263 mM); with Staphylococcus aureus [23] it was > 1200 µg/mL; in the data set with Staphylococcus aureus [24], > 1200 µg/mL; in the data set on Staphylococcus aureus [26], > 1200 µg/mL. For the same compound, the MIC in the data set with Staphylococcus aureus [27] and in the data set on Staphylococcus aureus [28] was > 1200 µg/mL in each case. The “fold change (FC)” value in the data set with Staphylococcus aureus [14] and in the data set with Staphylococcus aureus [17] was 8 - 16 each time. The Ratio in the data set with Staphylococcus aureus [20] and in the data set with Staphylococcus aureus [25] was 8 - 16 each time.
`CN[C@H](CC(C)C)C(=O)N[C@H]1C(=O)N[C@@H](CC(N)=O)C(=O)N[C@H]2C(=O)N[C@H]3C(=O)N[C@H](C(=O)N[C@H](C(=O)O)c4cc(O)cc(O)c4-c4cc3ccc4O)[C@H](O)c3ccc(c(Cl)c3)Oc3cc2cc(c3O[C@@H]2O[C@H](CO)[C@@H](O)[C@H](O)[C@H]2O[C@H]2C[C@](C)(N)[C@H](O)[C@H](C)O2)Oc2ccc(cc2Cl)[C@H]1O` [VANCOMYCIN]: the values for the MIC in the data set with Streptococcus sanguinis (read-out: MIC) and in the data set on Streptococcus mutans (read-out: MIC) were 1 µg/mL (≈ 0.00069 mM) and 2 µg/mL (≈ 0.00138 mM), respectively.
For H-WYERLINRKFKWLKGRLSKK-NH2, the viability at 48 h in [1] lay in the range of 70 to 80%. For the same compound, the minimum inhibitory concentration (MIC) in the data set on Streptococcus sanguinis (read-out: MIC) is < 64 µg/mL; with Streptococcus mutans it was > 64 µg/mL; in the data set on Staphylococcus aureus [2] it was < 64 µg/mL; with Staphylococcus aureus [3] it was > 64 µg/mL; in the data set with Candida albicans (read-out: MIC) it was < 64 µg/mL. Further, the HC10 with Erythrocyte was 178.82 µg/mL. Also, the HC50 at 1 h in data set [4] was > 640 µg/mL. For the same compound, the hemolysis at 1 h, 640 ug/ml in data set [5] amounted to 17.3%.
